In patent publication US12485169B2, “Compounds” (GREY WOLF THERAPEUTICS LIMITED, priority 2018, dated 2025):

Target: T1, Purified ERAP1 (37-941)-10His (ERAP1) (Homo sapiens, UniProt Q9NZ08)
T1 construct: Purified ERAP1 (37-941)-10His (ERAP1)
Assay: ERAP1 mediated hydrolysis of an amide substrate (10-mer inhibition assay), biochemical system
Settings: 10-mer substrate, 23° C., 1 h, excitation 279 nm / emission 355 nm; read-out: IC50 vs Decapeptide WRVYEKC(Dnp)ALK-acid (where Dnp is Dinitrophenyl maleimide) (10-mer)

T1 sequence (Q9NZ08 37-941): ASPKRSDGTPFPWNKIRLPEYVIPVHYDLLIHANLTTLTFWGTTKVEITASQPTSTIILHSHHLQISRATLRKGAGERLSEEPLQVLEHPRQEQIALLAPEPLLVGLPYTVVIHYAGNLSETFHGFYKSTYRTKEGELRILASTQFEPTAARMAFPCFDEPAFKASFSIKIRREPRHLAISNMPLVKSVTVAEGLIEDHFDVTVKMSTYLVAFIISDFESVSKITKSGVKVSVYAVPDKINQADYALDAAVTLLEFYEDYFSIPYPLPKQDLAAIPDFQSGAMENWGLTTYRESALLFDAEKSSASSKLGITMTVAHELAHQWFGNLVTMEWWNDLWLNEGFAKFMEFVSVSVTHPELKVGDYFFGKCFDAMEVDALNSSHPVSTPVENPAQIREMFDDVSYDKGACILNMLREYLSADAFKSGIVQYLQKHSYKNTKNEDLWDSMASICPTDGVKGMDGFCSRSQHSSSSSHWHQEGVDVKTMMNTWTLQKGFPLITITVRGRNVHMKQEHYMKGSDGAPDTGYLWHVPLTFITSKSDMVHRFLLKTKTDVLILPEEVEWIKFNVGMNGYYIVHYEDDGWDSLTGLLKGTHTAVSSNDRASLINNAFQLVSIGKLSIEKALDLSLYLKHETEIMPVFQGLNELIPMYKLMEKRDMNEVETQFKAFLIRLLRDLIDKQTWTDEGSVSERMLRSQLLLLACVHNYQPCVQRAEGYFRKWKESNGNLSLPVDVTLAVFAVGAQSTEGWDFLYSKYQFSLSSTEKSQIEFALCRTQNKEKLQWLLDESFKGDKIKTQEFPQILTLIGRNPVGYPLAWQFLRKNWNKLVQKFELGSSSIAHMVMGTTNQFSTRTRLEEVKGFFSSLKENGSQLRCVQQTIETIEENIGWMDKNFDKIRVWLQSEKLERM

IC50 [nM]	Structure (SMILES)
< 500	CCc1ccc(C(=O)O)cc1S(=O)(=O)Nc1cc(-n2cnnn2)ccc1N1CC(C)(O)C1 [Example 257, 4-ethyl-3-(N-(2-(3-hydroxy-3-methylazetidin-1-yl)-5-(tetrazol-1-yl)phenyl)sulfamoyl)benzoic acid]
< 500	COc1ccc(C(=O)O)cc1S(=O)(=O)Nc1cc(C#N)ccc1N1CCC[C@@H](O)C1 [Example 258, I-3-(N-(5-cyano-2-(3-hydroxypiperidin-1-yl)phenyl)sulfamoyl)-4-methoxybenzoic acid]
< 500	COc1ccc(C(=O)O)cc1S(=O)(=O)Nc1cc(-c2nn[nH]n2)ccc1N1CCCCC1 [Example 259, 4-methoxy-3-(N-(2-(piperidin-1-yl)-5-(tetrazol-5-yl)phenyl)sulfamoyl)benzoic acid]
< 500	CCc1ccc(C(=O)O)cc1S(=O)(=O)Nc1cc(C#N)ccc1N1CCC[C@@H](O)C1 [Example 260, I-3-(N-(5-cyano-2-(3-hydroxypiperidin-1-yl)phenyl)sulfamoyl)-4-ethylbenzoic acid]
< 500	CCc1ccc(C(=O)O)cc1S(=O)(=O)Nc1cc(-c2nn[nH]n2)ccc1N1CCCCC1 [Example 261, 4-ethyl-3-(N-(2-(piperidin-1-yl)-5-(tetrazol-5-yl)phenyl)sulfamoyl)benzoic acid]
< 500	CCc1ccc(C(=O)O)cc1S(=O)(=O)Nc1cc(S(C)(=O)=O)ccc1N1CCC[C@@H](F)C1 [Example 262, I-4-ethyl-3-(N-(2-(3-fluoropiperidin-1-yl)-5-(methylsulfonyl)phenyl)sulfamoyl)benzoic acid]
< 500	CCc1ccc(C(=O)O)cc1S(=O)(=O)Nc1cc(C#N)ccc1N1CCC[C@H](O)C1 [Example 263, (S)-3-(N-(5-cyano-2-(3-hydroxypiperidin-1-yl)phenyl)sulfamoyl)-4-ethylbenzoic acid]
< 500	COc1ccc(C(=O)O)cc1S(=O)(=O)Nc1cc(C#N)ccc1N1CCC[C@H](O)C1 [Example 264, (S)-3-(N-(5-cyano-2-(3-hydroxypiperidin-1-yl)phenyl)sulfamoyl)-4-methoxybenzoic acid]
< 500	COc1ccc(C(=O)O)cc1S(=O)(=O)Nc1cc(-n2cnnn2)ccc1N1CCC[C@@H](F)C1 [Example 265, I-3-(N-(2-(3-fluoropiperidin-1-yl)-5-(tetrazol-1-yl)phenyl)sulfamoyl)-4-methoxybenzoic acid]
< 500	CCc1ccc(C(=O)O)cc1S(=O)(=O)Nc1cc(-n2cnnn2)ccc1N1CCC[C@@H](F)C1 [Example 266, I-4-ethyl-3-(N-(2-(3-fluoropiperidin-1-yl)-5-(tetrazol-1-yl)phenyl)sulfamoyl)benzoic acid]
< 500	O=C(O)c1ccc(C2CC2)c(S(=O)(=O)Nc2cc(C(F)(F)F)ccc2N2CCCCC2)c1 [Example 267, 4-cyclopropyl-3-(N-(2-(piperidin-1-yl)-5-(trifluoromethyl)phenyl)sulfamoyl)benzoic acid]
< 500	CCCCc1ccc(C(=O)O)cc1S(=O)(=O)Nc1cc(C(F)(F)F)ccc1N1CCCCC1 [Example 268, 4-butyl-3-(N-(2-(piperidin-1-yl)-5-(trifluoromethyl)phenyl)sulfamoyl)benzoic acid]
< 500	COc1ccc(C(=O)O)cc1S(=O)(=O)Nc1cc(S(C)(=O)=O)ccc1N1CCC[C@@H](F)C1 [Example 269, I-3-(N-(2-(3-fluoropiperidin-1-yl)-5-(methylsulfonyl)phenyl)sulfamoyl)-4-methoxybenzoic acid]
< 5000	CCc1ccc(C(=O)O)cc1S(=O)(=O)Nc1cc(C(F)(F)F)ccc1N1CC(C)(O)C1 [Example 270, 4-ethyl-3-(N-(2-(3-hydroxy-3-methylazetidin-1-yl)-5-(trifluoromethyl)phenyl)sulfamoyl)benzoic acid]
< 5000	O=C(O)c1ccc(-n2cccn2)c(S(=O)(=O)Nc2cc(C(F)(F)F)ccc2N2CCCCC2)c1 [Example 271, 3-(N-(2-(piperidin-1-yl)-5-(trifluoromethyl)phenyl)sulfamoyl)-4-(pyrazol-1-yl)benzoic acid]
< 500	O=C(O)c1ccc(C2CCO2)c(S(=O)(=O)Nc2cc(C(F)(F)F)ccc2N2CCCCC2)c1 (centres unmarked) [Example 272, 4-(oxetan-2-yl)-3-(N-(2-(piperidin-1-yl)-5-(trifluoromethyl)phenyl)sulfamoyl)benzoic acid]
< 500	CCc1ccc(C(=O)O)cc1S(=O)(=O)Nc1cc(-c2cn(C)nn2)ccc1N1CCCCC1 [Example 273, 4-ethyl-3-(N-(5-(1-methyl-1,2,3-triazol-4-yl)-2-(piperidin-1-yl)phenyl)sulfamoyl)benzoic acid]
< 500	CCc1ccc(C(=O)O)cc1S(=O)(=O)Nc1cc(-c2cnnn2C)ccc1N1CCCCC1 [Example 274, 4-ethyl-3-(N-(5-(1-methyl-1,2,3-triazol-5-yl)-2-(piperidin-1-yl)phenyl)sulfamoyl)benzoic acid]
< 500	CCc1ccc(C(=O)O)cc1S(=O)(=O)Nc1cc(-c2cncs2)ccc1N1CCCCC1 [Example 275, 4-ethyl-3-(N-(2-(piperidin-1-yl)-5-(thiazol-5-yl)phenyl)sulfamoyl)benzoic acid]

IC50 [nM]	Structure (SMILES)
< 500	CCc1ccc(C(=O)O)cc1S(=O)(=O)Nc1cc(-c2cc[nH]n2)ccc1N1CCCCC1 [Example 276, 4-ethyl-3-(N-(2-(piperidin-1-yl)-5-(pyrazol-3-yl)phenyl)sulfamoyl)benzoic acid]
< 500	CCc1ccc(C(=O)O)cc1S(=O)(=O)Nc1cc(-c2cnn(C)c2)ccc1N1CCCCC1 [Example 277, 4-ethyl-3-(N-(5-(1-methylpyrazol-4-yl)-2-(piperidin-1-yl)phenyl)sulfamoyl)benzoic acid]
< 500	CCc1ccc(C(=O)O)cc1S(=O)(=O)Nc1cc(-c2nncs2)ccc1N1CCCCC1 [Example 278, 4-ethyl-3-(N-(2-(piperidin-1-yl)-5-(1,3,4-thiadiazol-2-yl)phenyl)sulfamoyl)benzoic acid]
< 500	CCc1ccc(C(=O)O)cc1S(=O)(=O)Nc1cc(-c2cnoc2C)ccc1N1CCCCC1 [Example 279, 4-ethyl-3-(N-(5-(5-methylisoxazol-4-yl)-2-(piperidin-1-yl)phenyl)sulfamoyl)benzoic acid]
< 500	CCc1ccc(C(=O)O)cc1S(=O)(=O)Nc1cc(-c2ccn(C)n2)ccc1N1CCCCC1 [Example 280, 4-ethyl-3-(N-(5-(1-methylpyrazol-3-yl)-2-(piperidin-1-yl)phenyl)sulfamoyl)benzoic acid]
< 500	CCc1ccc(C(=O)O)cc1S(=O)(=O)Nc1cc(-c2ccnn2C)ccc1N1CCCCC1 [Example 281]
< 500	CCc1ccc(C(=O)O)cc1S(=O)(=O)Nc1cc(-c2cnc(C)s2)ccc1N1CCCCC1 [Example 282, 4-ethyl-3-(N-(5-(2-methylthiazol-5-yl)-2-(piperidin-1-yl)phenyl)sulfamoyl)benzoic acid]
< 500	CCc1ccc(C(=O)O)cc1S(=O)(=O)Nc1cc(-n2cnnn2)ccc1N1CC(O)C1 [Example 283, 4-ethyl-3-(N-(2-(3-hydroxyazetidin-1-yl)-5-(tetrazol-1-yl)phenyl)sulfamoyl)benzoic acid]
< 500	CCc1ccc(C(=O)O)cc1S(=O)(=O)Nc1cc(-c2ccns2)ccc1N1CCCCC1 [Example 286, 4-ethyl-3-(N-(5-(isothiazol-5-yl)-2-(piperidin-1-yl)phenyl)sulfamoyl)benzoic acid]
< 500	CCc1ccc(C(=O)O)cc1S(=O)(=O)Nc1cc(-c2cncn2C)ccc1N1CCCCC1 [Example 287, 4-ethyl-3-(N-(5-(1-methylimidazol-5-yl)-2-(piperidin-1-yl)phenyl)sulfamoyl)benzoic acid]
< 500	CCc1ccc(C(=O)O)cc1S(=O)(=O)Nc1cc(-c2ncnn2C)ccc1N1CCCCC1 [Example 288, 4-ethyl-3-(N-(5-(1-methyl-1,2,4-triazol-5-yl)-2-(piperidin-1-yl)phenyl)sulfamoyl)benzoic acid]
< 500	CCc1ccc(C(=O)O)cc1S(=O)(=O)Nc1cc(-c2ncco2)ccc1N1CCCCC1 [Example 289, 4-ethyl-3-(N-(5-(oxazol-2-yl)-2-(piperidin-1-yl)phenyl)sulfamoyl)benzoic acid]
< 500	CCc1ccc(C(=O)O)cc1S(=O)(=O)Nc1cc(-c2cnccn2)ccc1N1CCCCC1 [Example 290, 4-ethyl-3-(N-(2-(piperidin-1-yl)-5-(pyrazin-2-yl)phenyl)sulfamoyl)benzoic acid]
< 500	CCc1ccc(C(=O)O)cc1S(=O)(=O)Nc1cc(-c2c(C)noc2C)ccc1N1CCCCC1 [Example 291, 3-(N-(5-(3,5-dimethylisoxazol-4-yl)-2-(piperidin-1-yl)phenyl)sulfamoyl)-4-ethylbenzoic acid]
< 500	CCc1ccc(C(=O)O)cc1S(=O)(=O)Nc1cc(-c2nnc(C)o2)ccc1N1CCCCC1 [Example 292, 4-ethyl-3-(N-(5-(5-methyl-1,3,4-oxadiazol-2-yl)-2-(piperidin-1-yl)phenyl)sulfamoyl)benzoic acid]
< 500	CCc1ccc(C(=O)O)cc1S(=O)(=O)Nc1cc(-c2cccnn2)ccc1N1CCCCC1 [Example 293, 4-ethyl-3-(N-(2-(piperidin-1-yl)-5-(pyridazin-3-yl)phenyl)sulfamoyl)benzoic acid]
< 500	CCc1ccc(C(=O)O)cc1S(=O)(=O)Nc1cc(C(F)(F)F)c(Br)cc1N1CCCCC1 [Example 294, 3-(N-(4-bromo-2-(piperidin-1-yl)-5-(trifluoromethyl)phenyl)sulfamoyl)-4-ethylbenzoic acid]
< 500	N#Cc1ccc(N2CCCCC2)c(NS(=O)(=O)c2cc(C(=O)O)ccc2C2CC2)c1 [Example 295, 3-(N-(5-cyano-2-(piperidin-1-yl)phenyl)sulfamoyl)-4-cyclopropylbenzoic acid]
< 500	CS(=O)(=O)c1ccc(N2CCCCC2)c(NS(=O)(=O)c2cc(C(=O)O)ccc2C2CC2)c1 [Example 296, 4-cyclopropyl-3-(N-(5-(methylsulfonyl)-2-(piperidin-1-yl)phenyl)sulfamoyl)benzoic acid]
